PMC7866175, “Genomics-Driven Activation of Silent Biosynthetic Gene Clusters in Burkholderia gladioli by Screening Recombineering System” (Molecules, 2021)
Read-outs that look alike come from different tables or passages of the source. *1 amine or outer side, *2 acyl side, *3 side chain or, on linkers, in order; H or OH if unused. Where a SMILES comes first, the peptide text is derived from it. [ ]: non-standard residue; d: D form. The star is where a group is joined. ξ: configuration not given here. Decanoyl(3ξ-OH) = CCCCCCCC(O)CC(=O)*; X1 = CC=C(N[*:1])C(=O)[*:2]

Columns and labels:
Assay type in all cases: cell-based
HepG-2 = test: Cytotoxic activity assay; details: HepG2; human hepatoma cell HepG-2
A549 = test: Cytotoxic activity assay; details: human lung adenocarcinoma cell A549
Hela = test: Cytotoxic activity assay; details: human cervix epithelioid carcinoma Hela
Cytotoxic activity assay = details: human, normal cell line 293T
HCT116 = test: Cytotoxic activity assay; details: Homo sapiens, HCT-116, read-out: cytotoxic activity IC50, HCT116
[1] = system: Pseudomonas aeruginosa ATCC 27853; test: Antibacterial activity assay; details: ATCC27853; Gram-negative bacterium Pseudomonas aeruginosa ATCC 27853
K562 = test: Cytotoxic activity assay; details: human hematological disease cells K562
[2] = system: Escherichia coli ATCC 35218; test: Antibacterial activity assay; details: ATCC35218
MCF-7 = test: Cytotoxic activity assay; details: human breast adenocarcinoma cells MCF7
[3] = system: Bacillus subtilis ATCC 6633; test: Antibacterial activity assay; details: ATCC6633; Gram-positive bacterium Bacillus subtilis ATCC 6633
[4] = system: Staphylococcus aureus ATCC 29213; test: Antibacterial activity assay; details: ATCC29213; Gram-positive bacterium Staphylococcus aureus ATCC 29213
[5] = Gram-negative bacterium Escherichia coli ATCC 35218, read-out: MIC

Structure (SMILES): CC=C(NC(=O)CCCCCCC)C(=O)NC(=CC)C(=O)NC(Cc1ccc(O)cc1)C(=O)O (stereo not shown) [Compound 10, Haereogladiodin B]
- IC50 (HepG-2): > 20 µM
- IC50 (A549): > 20 µM
- IC50 (Hela): > 20 µM
- IC50 (Cytotoxic activity assay): 33.9 ± 0.75 µM
- IC50 (HCT116): > 20 µM
- MIC [1]: > 100 µM
- IC50 (K562): > 20 µM
- MIC [2, 5]: > 100 µM
- IC50 (MCF-7): > 20 µM
- MIC [3]: > 100 µM
- MIC [4]: > 100 µM

Structure (SMILES): CC=C(NC(=O)CC(O)CCCCCCC)C(=O)N1CCCC1C(=O)NC(CCC(N)=O)C(=O)NC(C)C(=O)NC(C)C(=O)NC(Cc1ccccc1)C(=O)O (stereo not shown) [Compound 8, Burriogladiodin H] ({Decanoyl(3ξ-OH)}-[X1]PQAAF-OH; configuration not given here)
- IC50 (HepG-2): > 20 µM
- IC50 (A549): > 20 µM
- IC50 (Hela): > 20 µM
- IC50 (Cytotoxic activity assay): > 40 µM
- IC50 (HCT116): > 20 µM
- MIC [1]: > 100 µM
- IC50 (K562): > 20 µM
- MIC ([2]; Escherichia coli): > 100 µM
- IC50 (MCF-7): > 20 µM
- MIC [3]: > 100 µM
- MIC [4]: > 100 µM

Structure (SMILES): CC=C(NC(=O)CC(O)CCCCCCC)C(=O)N1CCCC1C(=O)NC(CCC(N)=O)C(=O)NC(C)C(=O)NC(C(=O)NC(Cc1ccccc1)C(=O)O)C(C)C (stereo not shown) [Compound 5, Burriogladiodin E] ({Decanoyl(3ξ-OH)}-[X1]PQAVF-OH; configuration not given here)
- IC50 (HepG-2): > 20 µM
- IC50 (A549): > 20 µM
- IC50 (Hela): > 20 µM
- IC50 (Cytotoxic activity assay): 24.9 ± 0.96 µM
- IC50 (HCT116): > 20 µM
- MIC [1]: > 100 µM
- IC50 (K562): > 20 µM
- MIC ([2]; Escherichia coli): > 100 µM
- IC50 (MCF-7): > 20 µM
- MIC [3]: > 100 µM
- MIC [4]: > 100 µM

Structure (SMILES): COc1cccc2c1C(=O)c1c(O)c3c(c(O)c1C2=O)C[C@@](O)(C(=O)CO)C[C@@H]3O[C@H]1C[C@H](N)[C@H](O)[C@H](C)O1 [adriamycin, reference compound]
- IC50 (HepG-2): 0.68 ± 0.001 µM
- IC50 (A549): 0.61 ± 0.03 µM
- IC50 (Hela): 0.61 ± 0.07 µM
- IC50 (Cytotoxic activity assay; 293T cells (normal cell line)): 1.47 ± 0.15 µM
- IC50 (HCT116): 0.73 ± 0.05 µM
- IC50 (K562): 0.57 ± 0.02 µM
- IC50 (MCF-7): 0.86 ± 0.07 µM

Structure (SMILES): CC=C(NC(=O)CCCCCCC)C(=O)NC(=CC)C(=O)NC(Cc1ccc(O)cc1)C(=O)NC(CC(C)C)C(=O)Nc1ccc(C(=O)NC(C(=O)O)C(C)O)cc1 (stereo not shown) [Compound 9, Haereogladiodin A]
- IC50 (HepG-2): > 20 µM
- IC50 (A549): > 20 µM
- IC50 (Hela): > 20 µM
- IC50 (Cytotoxic activity assay): 36.1 ± 0.81 µM
- IC50 (HCT116): > 20 µM
- MIC [1]: > 100 µM
- IC50 (K562): > 20 µM
- MIC [2, 5]: > 100 µM
- IC50 (MCF-7): > 20 µM
- MIC [3]: > 100 µM
- MIC [4]: > 100 µM

Structure (SMILES): CC=C(NC(=O)CC(O)CCCCCCC)C(=O)N1CCCC1C(=O)NC(CCC(N)=O)C(=O)NC(C)C(=O)NC(C(=O)NC(Cc1ccccc1)C(=O)N1CCCC1C(=O)NC(C(=O)O)C(C)O)C(C)C (stereo not shown) [Compound 2, Burriogladiodin B] ({Decanoyl(3ξ-OH)}-[X1]PQAVFPT-OH; configuration not given here)
- IC50 (HepG-2): > 20 µM
- IC50 (A549): > 20 µM
- IC50 (Hela): > 20 µM
- IC50 (Cytotoxic activity assay): > 40 µM
- IC50 (HCT116): > 20 µM
- MIC [1]: > 100 µM
- IC50 (K562): > 20 µM
- MIC ([2]; Escherichia coli): > 100 µM
- IC50 (MCF-7): > 20 µM
- MIC [3]: > 100 µM
- MIC [4]: > 100 µM

Structure (SMILES): CC=C(NC(=O)CC(O)CCCCCCC)C(=O)N1CCCC1C(=O)NC(CCC(N)=O)C(=O)NC(C)C(=O)NC(C(=O)NC(Cc1ccccc1)C(=O)N1CCCC1C(=O)O)C(C)C (stereo not shown) [Compound 1, Burriogladiodin A] ({Decanoyl(3ξ-OH)}-[X1]PQAVFP-OH; configuration not given here)
- IC50 (HepG-2): > 20 µM
- IC50 (A549): > 20 µM
- IC50 (Hela): > 20 µM
- IC50 (Cytotoxic activity assay): 29.4 ± 0.85 µM
- IC50 (HCT116): > 20 µM
- MIC [1]: > 100 µM
- IC50 (K562): > 20 µM
- MIC ([2]; Escherichia coli): > 100 µM
- IC50 (MCF-7): > 20 µM
- MIC [3]: > 100 µM
- MIC [4]: > 100 µM
